# According to patent US12103916B2, “Antifungal compounds” (University of Kentucky Research Foundation, priority 2016, dated 2024):
# Read-outs that look alike come from different tables or passages of the source. Marks after values point to notes of the source that are not given here.
# What was measured:
# [1] = test system: C. albicans ATCC MYA-2876(S); test: MIC determination, strain C; assay type: cell-based, Candida albicans; settings: Candida albicans
# Protocol: The antifungal activity of our new azole compounds 1-9 and 24-41 was first evaluated against a panel of seven Candida albicans strains (A-G), three non-albicans Candida strains […], and three Aspergillus strains (K-M) in a concentration range of 0.03-31.2 μg/mL (Table 1). […] For all of our azole derivatives we report their MIC-0 values against C. albicans ATCC 10231 (strain A) and all Aspergillus strains (K-M), which correspond to complete growth inhibition of these fungi. […] The commercially available antifungals AmB, FLC, ITC, POS, and VOR were used as reference drugs for comparison. The MIC values presented for these five control drugs were either tested herein or correspond to our previously published data^5, 16 as indicated in Table 1.
# Antifungal activity in the absence or presence of serum. The antifungal activity of the newly prepared alkylated piperazine/morpholine-azole hybrids 16-28, of intermediate 14 that we used to verify that only final compounds exert antifungal activity, as well as that of alkylated piperazine/morpholine derivatives 1-10 were first evaluated against a panel of seven C. albicans (ATCC 10231 (A), ATCC 64124(R) (B), ATCC MYA-2876(S) (C), ATCC 90819(R) (D), ATCC MYA-2310(S) (E), ATCC MYA-1237(R) (F), and ATCC MYA-1003(R) (G)), three non-albicans Candida (C. glabrata ATCC 2001 (H), C. krusei ATCC 6258 (I), and C. parapsilosis ATCC 22019 (J)), and three Aspergillus (A. flavus ATCC MYA-3631 (K), A. nidulans ATCC 38163 (L), and A. terreus ATCC MYA-3633 (M)) strains using a concentration range of 0.03-31.3 μg/mL (Table 2).
# Commercially available antifungal agents such as AmB, CAS, FLC, and VOR were used as positive controls for comparison. […] It is important to note that all comparisons to follow will be done by using the MIC values reported in μg/mL as the data were collected that way. However, we also present in parentheses in Table 2 the corresponding values in micromolar.
# We used the commercially available antifungal agents such as AmB, caspofungin (CAS), FLC, and VOR as positive controls for comparison. For derivatives 5-16 as well as the reference drugs AmB and CAS, we reported MIC-0 values, which correspond to no visible growth. […] In this manuscript, we performed all activity comparisons by using the MIC values reported in μg/mL (Note: the corresponding MIC values are also provided in μM into parentheses in Tables 1, 2, S1, and S2).
# [2] = test system: Aspergillus nidulans ATCC 38163; test: MIC determination, strain L; assay type: cell-based
# Text: (§1) For all of our azole derivatives we report their MIC-0 values against C. albicans ATCC 10231 (strain A) and all Aspergillus strains (K-M), which correspond to complete growth inhibition of these fungi. […] The MIC values presented for these five control drugs were either tested herein or correspond to our previously published data^5, 16 as indicated in Table 1.
# (§2) Antifungal activity in the absence or presence of serum.
# (§3) It is important to note that all comparisons to follow will be done by using the MIC values reported in μg/mL as the data were collected that way. However, we also present in parentheses in Table 2 the corresponding values in micromolar.
# (§4) In this manuscript, we performed all activity comparisons by using the MIC values reported in μg/mL (Note: the corresponding MIC values are also provided in μM into parentheses in Tables 1, 2, S1, and S2).
# [3] = test system: Aspergillus terreus ATCC MYA-3633; test: MIC determination, strain M; assay type: cell-based; settings: Aspergillus terreus, Table 2, all compounds and controls
# Text: as §1, §2, §3, §4
# [4] = test system: C. albicans ATCC 64124 (strain B) biofilms; test: Antibiofilm activity by XTT reduction assay; assay type: cell-based, Candida albicans; settings: Table 4, Ex.2
# Protocol: Antibiofilm activity of synthetic compounds. Biofilms are complex functional communities of one or more species of microorganisms that are encased in extracellular polymeric substances and attached to both a solid surface and to each other. Being complex matrices, antifungal agents have difficulty reaching the pathogens embedded in these difficult-to-treat networks. The antibiofilm activity of compounds 7, 9, 20, 22, 25, and 26, as well as that of VOR were evaluated against biofilms of C. albicans ATCC 64124 (strain B) by XTT reduction assay (Table 4).
# [5] = test system: C. glabrata ATCC 2001 (strain H); test: Time-kill assay, strain H; assay type: cell-based, Candida glabrata; settings: Ex.2 series, compound at 4×MIC, VOR control
# Protocol: FIG. 9A-9D include Representative time-kill curves for compound 20 against FIG. 9A. C. albicans ATCC 10231 (strain A) and FIG. 9B. C. parapsilosis ATCC 22019 (strain J), as well as for compound 22 against FIG. 9C. C. glabrata ATCC 2001 (strain H), and FIG. 9D. strain J. Fungal strains were treated with no drug (black circles), 1×MIC (white circles), 4×MIC (inverted black triangles), or 8×MIC (white triangles) of compounds 20 or 22, or with 1×MIC (black squares) or 4×MIC (white squares) of VOR. The detection limit of this assay was 100 CFU/mL (represented by the red line in panels A and C).
# Time-kill assays. To determine if the antifungal activity of the alkylated piperazine-azole hybrids is fungistatic or fungicidal, we performed time-kill assays over 24-hour periods by using compounds 20 and 22, each against two fungal strains (strains A and J for 20; H and J for 22) (FIG. 9).
# [6] = test system: Candida albicans ATCC 10231; settings: Table 1; strain A; control azoles FLC, ITC, POS, VOR; previously reported (refs 5, 16); cited from earlier work
# [7] = test system: C. albicans ATCC MYA-1237(R); settings: Table 1; strain F; control azoles; previously reported (refs 5, 16); cited from earlier work
# [8] = test system: Candida glabrata ATCC 2001; settings: Table 1; strain H; control azoles; previously reported (refs 5, 16); cited from earlier work
# [9] = test system: Candida parapsilosis ATCC 22019; settings: Table 1; strain J; control azoles; previously reported (refs 5, 16); cited from earlier work
# [10] = test system: Aspergillus terreus ATCC MYA-3633; settings: Table 1; strain M; control azoles; previously reported (refs 5, 16); cited from earlier work
smiles,measurement,setting,value
"C[C@@H](c1ncncc1F)[C@](O)(Cn1cncn1)c1ccc(F)cc1F [VOR, voriconazole]",MIC,[1]; read-out: MIC (MIC-2),1.95 µg/mL
same,MIC,"[1]; read-out: MIC (MIC-2), in parentheses",5.6 µM
same,MIC,"[2]; ATCC38163, Table 2, strain L, all compounds and controls, read-out: MIC (MIC-0)",0.12 µg/mL
same,MIC,"[2]; ATCC38163, Table 2, strain L, all compounds and controls, read-out: MIC (MIC-0), in parentheses",0.34 µM
same,MIC,"[2]; ATCC38163, Table 3, Ex.2 compounds, no FBS, read-out: MIC, Aspergillus nidulans ATCC 38163 (L) (no FBS)",0.12 µg/mL
same,MIC,"[2]; ATCC38163, read-out: MIC, Aspergillus nidulans ATCC 38163 (L) (+10% FBS), Table 3, Ex.2 compounds, +10% FBS",0.12 µg/mL
same,MIC,[3]; read-out: MIC (MIC-0),0.12 µg/mL
same,MIC,"[3]; read-out: MIC (MIC-0), in parentheses",0.34 µM
same,SMIC50,[4]; reduces metabolic activity of biofilms by 50%,62.5 µg/mL
same,SMIC80,[4]; reduces metabolic activity of biofilms by 80%,62.5 µg/mL
same,effect in time-kill assay,[5],fungistatic
same,MIC (MIC-2),[6],0.24^c μg/mL
same,MIC (MIC-2),[7],7.8^c μg/mL
same,MIC (MIC-2),[8],0.06^c μg/mL
same,MIC (MIC-2),[9],<0.03^c μg/mL
same,MIC (MIC-2),[10],0.12^c μg/mL
